Reference: ChEMBL document CHEMBL1126233, “Derivatives of naphthalimide: new potent conformationally restricted antagonists of 5-HT3 receptors” (Bioorg Med Chem Lett, 1992)
pKi: −log10 of the molar value.

What was measured:
[1] = target: T1, Serotonin 3 (5-HT3) receptor (Rattus norvegicus, UniProt P35563+Q9JJ16); assay: Binding affinity at 5-hydroxytryptamine 3 receptor in rat posterior cortex by [3H]-BRL 43694 displacement.; assay type: tissue-based, Brain
T1 sequence (P35563 whole entry): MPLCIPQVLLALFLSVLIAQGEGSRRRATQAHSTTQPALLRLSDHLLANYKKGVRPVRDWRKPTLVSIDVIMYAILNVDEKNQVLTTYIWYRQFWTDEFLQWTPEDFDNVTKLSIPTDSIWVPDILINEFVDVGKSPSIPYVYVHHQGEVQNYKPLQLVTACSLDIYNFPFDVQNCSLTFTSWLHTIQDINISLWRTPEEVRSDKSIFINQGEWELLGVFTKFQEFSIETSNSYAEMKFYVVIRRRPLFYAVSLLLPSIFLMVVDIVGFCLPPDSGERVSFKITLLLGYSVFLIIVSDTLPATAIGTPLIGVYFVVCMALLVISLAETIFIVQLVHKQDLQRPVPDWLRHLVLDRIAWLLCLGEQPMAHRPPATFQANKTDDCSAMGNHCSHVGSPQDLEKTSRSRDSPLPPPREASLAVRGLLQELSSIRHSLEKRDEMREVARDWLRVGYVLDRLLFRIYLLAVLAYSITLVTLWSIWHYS
T1 sequence (Q9JJ16 whole entry): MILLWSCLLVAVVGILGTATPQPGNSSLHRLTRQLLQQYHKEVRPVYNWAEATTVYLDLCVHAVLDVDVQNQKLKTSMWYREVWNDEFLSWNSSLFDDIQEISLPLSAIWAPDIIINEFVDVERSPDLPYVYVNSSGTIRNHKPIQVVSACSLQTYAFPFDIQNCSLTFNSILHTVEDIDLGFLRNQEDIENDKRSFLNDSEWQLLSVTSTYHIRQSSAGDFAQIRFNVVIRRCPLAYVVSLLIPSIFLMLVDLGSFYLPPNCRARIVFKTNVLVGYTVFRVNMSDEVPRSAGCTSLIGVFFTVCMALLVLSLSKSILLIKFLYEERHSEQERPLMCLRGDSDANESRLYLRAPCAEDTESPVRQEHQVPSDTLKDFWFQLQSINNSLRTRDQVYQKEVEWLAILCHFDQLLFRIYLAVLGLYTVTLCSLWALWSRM

Rattus norvegicus [2] = assay: Antagonism of the bradycardia induced by iv injection of 5-HT(10-30 ug/kg) was evaluated by the compound administration in rat; 1.7-74; assay type: functional; conditions: read-out: ID50 (the source's name)
Rattus norvegicus [3] = assay: Antagonism of the bradycardia induced by iv injection of 5-HT(10-30 ug/kg) was evaluated by the compound administration in rat; 2.5-3.9; assay type: functional; conditions: read-out: ID50 (the source's name)
Rattus norvegicus [4] = assay: Antagonism of the bradycardia induced by iv injection of 5-HT(10-30 ug/kg) was evaluated by the compound administration in rat; assay type: functional; conditions: read-out: ID50 (the source's name)
Rattus norvegicus [5] = assay: Antagonism of the bradycardia induced by iv injection of 5-HT(10-30 ug/kg) was evaluated by the compound administration in rat; 82-190; assay type: functional; conditions: read-out: ID50 (the source's name)
Rattus norvegicus [6] = assay: Antagonism of the bradycardia induced by iv injection of 5-HT(10-30 ug/kg) was evaluated by the compound administration in rat; 3-8; assay type: functional; conditions: read-out: ID50 (the source's name)
Rattus norvegicus [7] = assay: Antagonism of the bradycardia induced by iv injection of 5-HT(10-30 ug/kg) was evaluated by the compound administration in rat; 81-615; assay type: functional; conditions: read-out: ID50 (the source's name)
Rattus norvegicus [8] = assay: Antagonism of the bradycardia induced by iv injection of 5-HT(10-30 ug/kg) was evaluated by the compound administration in rat; 3.8-8.7; assay type: functional; conditions: read-out: ID50 (the source's name)
Rattus norvegicus [9] = assay: Antagonism of the bradycardia induced by iv injection of 5-HT(10-30 ug/kg) was evaluated by the compound administration in rat; 0.7-3.6; assay type: functional; conditions: read-out: ID50 (the source's name)
Rattus norvegicus [10] = assay: Antagonism of the bradycardia induced by iv injection of 5-HT(10-30 ug/kg) was evaluated by the compound administration in rat; 12-55; assay type: functional; conditions: read-out: ID50 (the source's name)
Rattus norvegicus [11] = assay: Antagonism of the bradycardia induced by iv injection of 5-HT(10-30 ug/kg) was evaluated by the compound administration in rat; 52-205; assay type: functional; conditions: read-out: ID50 (the source's name)
Rattus norvegicus [12] = assay: Antagonism of the bradycardia induced by iv injection of 5-HT(10-30 ug/kg) was evaluated by the compound administration in rat; 8-55; assay type: functional; conditions: read-out: ID50 (the source's name)
Rattus norvegicus [13] = assay: Antagonism of the bradycardia induced by iv injection of 5-HT(10-30 ug/kg) was evaluated by the compound administration in rat; 0.05-0.75; assay type: functional; conditions: read-out: ID50 (the source's name)
Rattus norvegicus [14] = assay: Antagonism of the bradycardia induced by iv injection of 5-HT(10-30 ug/kg) was evaluated by the compound administration in rat; 0.3-3.4; assay type: functional; conditions: read-out: ID50 (the source's name)

SMILES | pKi [1] | other results
O=C1c2cccc3cccc(c23)CN1[C@H]1CN2CCC1CC2 | 8.64 | 
O=C1c2cccc3cccc(c23)C(=O)N1C1CN2CCC1CC2 (centres undefined) | 8.57 | ED50 (Rattus norvegicus [2]): 0.011 mg/kg
Nc1ccc2c3c(cccc13)C(=O)N(C1CN3CCC1CC3)C2=O (centres undefined) | 9.30 | ED50 (Rattus norvegicus [3]): 0.003 mg/kg
CN1CCC(N2C(=O)c3cccc4cccc(c34)C2=O)CC1 | 7.82 | ED50 (Rattus norvegicus [4]): 0.5 mg/kg
O=c1[nH]c2ccc(Cl)cc2c(=O)n1C1CN2CCC1CC2 (centres undefined) | 7.52 | ED50 (Rattus norvegicus [4]): 0.08 mg/kg
O=C1c2cccc3c(Cl)ccc(c23)C(=O)N1C1CN2CCC1CC2 (centres undefined) | 7.85 | ED50 (Rattus norvegicus [5]): 0.125 mg/kg
O=C1c2cccc3c([N+](=O)[O-])ccc(c23)C(=O)N1C1CN2CCC1CC2 (centres undefined) | 7.51 | ED50 (Rattus norvegicus [6]): 0.00525 mg/kg
CN1C2CCC1CC(N1C(=O)c3cccc4cccc(c34)C1=O)C2 (centres undefined) | 6.43 | ED50 (Rattus norvegicus [4]): > 0.25 mg/kg
O=C1c2cccc3cccc(c23)C(=O)N1[C@@H]1CN2CCC1CC2 | 7.21 | ED50 (Rattus norvegicus [7]): 0.224 mg/kg
O=C1c2cccc3cccc(c23)C(=O)N1[C@H]1CN2CCC1CC2 | 9.05 | ED50 (Rattus norvegicus [8]): 0.0057 mg/kg
Nc1ccc2c3c(cccc13)C(=O)N([C@H]1CN3CCC1CC3)C2=O | 9.82 | ED50 (Rattus norvegicus [9]): 0.0016 mg/kg
COc1ccccc1C(=O)NC1CN2CCC1CC2 (centres undefined) | 7.66 | ED50 (Rattus norvegicus [10]): 0.025 mg/kg
O=C1c2cccc3cccc(c23)CN1[C@@H]1CN2CCC1CC2 | 8.66 | 
O=c1[nH]c2ccccc2c(=O)n1C1CN2CCC1CC2 (centres undefined) | 7.10 | ED50 (Rattus norvegicus [11]): 0.103 mg/kg
Nc1ccc2c3c(cccc13)C(=O)N([C@@H]1CN3CCC1CC3)C2=O | 7.63 | ED50 (Rattus norvegicus [12]): 0.021 mg/kg
O=C1c2cccc3c(Br)ccc(c23)C(=O)N1C1CN2CCC1CC2 (centres undefined) | 7.39 | ED50 (Rattus norvegicus [4]): > 0.25 mg/kg
COc1cc(N)c(Cl)cc1C(=O)N[C@@H]1CN2CCC1CC2 | 9.70 | ED50 (Rattus norvegicus [13]): 0.0002 mg/kg
COc1cc(N)c(Cl)cc1C(=O)N[C@H]1CN2CCC1CC2 [(R)ZACOPRIDE] | 8.59 | ED50 (Rattus norvegicus [14]): 0.001 mg/kg
